Values quoted from earlier work, collected in patent US20140363396A1, “ONCE DAILY TREATMENT OF HEPATITIS C WITH RIBAVIRIN AND TARIBAVIRIN” (priority 2012, published 2014).

What was measured:
[1] = compared with ribavirin
[2] = in vivo
[3] = in vivo; remark: listed apart in the source
HCV NS3/4A protease = target: T1, HCV NS3/4A protease (Hepatitis C virus genotype 1a, UniProt P27958); conditions: R-diastereomer compared with telaprevir
T1 construct: NS3 consists of an N-terminal serine protease domain and a C-terminal helicase domain
T1 sequence (P27958 1027-1657 limits assumed): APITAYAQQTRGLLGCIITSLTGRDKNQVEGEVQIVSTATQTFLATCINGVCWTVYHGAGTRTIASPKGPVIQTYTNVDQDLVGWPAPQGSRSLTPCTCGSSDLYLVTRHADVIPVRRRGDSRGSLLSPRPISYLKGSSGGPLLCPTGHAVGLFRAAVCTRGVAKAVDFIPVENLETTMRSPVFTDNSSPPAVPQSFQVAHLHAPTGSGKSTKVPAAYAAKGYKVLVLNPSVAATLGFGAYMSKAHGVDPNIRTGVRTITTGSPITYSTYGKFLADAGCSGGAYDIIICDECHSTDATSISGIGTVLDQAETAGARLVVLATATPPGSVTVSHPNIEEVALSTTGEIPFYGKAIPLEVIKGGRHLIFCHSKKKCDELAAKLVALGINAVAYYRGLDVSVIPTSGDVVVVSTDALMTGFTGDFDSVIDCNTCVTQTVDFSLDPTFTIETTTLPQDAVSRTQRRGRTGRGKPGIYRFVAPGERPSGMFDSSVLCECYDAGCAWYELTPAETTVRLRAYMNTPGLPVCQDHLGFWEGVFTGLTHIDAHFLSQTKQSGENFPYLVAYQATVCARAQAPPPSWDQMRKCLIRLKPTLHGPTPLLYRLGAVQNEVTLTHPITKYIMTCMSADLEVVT
T1 sequence (P27958 1658-1711 partner limits assumed): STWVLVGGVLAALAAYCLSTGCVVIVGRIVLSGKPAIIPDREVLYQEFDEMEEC

Compound: NC(=O)c1ncn([C@@H]2O[C@H](CO)[C@@H](O)[C@H]2O)n1 [Ribavirin, 1-β-D-ribofuranosyl-1H-1,2,4-triazole-3-carboxamide]
- solubility in anhydrous alcohol (anhydrous alcohol): slightly soluble
- solubility in water: freely soluble

Compound: NC(=O)c1ncn([C@H]2O[C@@H](CO)[C@H](O)[C@@H]2O)n1 [Levovirin, 1-β-L-ribofuranosyl-1H-1,2,4-triazole-3-carboxamide]
- toxicity [1]: less toxic

Compound: CC(C)(C)NC(=O)N[C@H](C(=O)N1C[C@H]2[C@@H]([C@H]1C(=O)NC(CC1CCC1)C(=O)C(N)=O)C2(C)C)C(C)(C)C (stereo partly drawn) [Boceprevir, (1R,5S)—N-[3-Amino-1-(cyclobutylmethyl)-2,3-dioxopropyl]-3-[2(S)-[[[(1,1-dimethylethyl)amino]carbonyl]amino]-3,3-dimethyl-1-oxobutyl]-6,6-dimethyl-3-azabicyclo[3.1.0]hexan-2(S)-carboxamide]
- solubility in methanol, ethanol and isopropanol (methanol, ethanol and isopropanol): freely soluble
- solubility in water: slightly soluble

Compound: N=C(N)c1ncn([C@@H]2O[C@H](CO)[C@@H](O)[C@H]2O)n1 [taribavirin, 1-β-D-ribofuranosyl-1H-1,2,4-triazole-3-carboxamidine]
- anemia [2]: significantly less anemia

Compound: CCC[C@@H](NC(=O)[C@@H]1[C@H]2CCC[C@H]2CN1C(=O)[C@@H](NC(=O)[C@@H](NC(=O)c1cnccn1)C1CCCCC1)C(C)(C)C)C(=O)C(=O)NC1CC1 [VRT-127394]
- metabolite of telaprevir in plasma [3]: major metabolite in plasma
- fold less potent than telaprevir (HCV NS3/4A protease): approximately 30 fold
